In ChEMBL document CHEMBL3352542, “Synthesis, biological evaluation and molecular modeling study of 2-(1,3,4-thiadiazolyl-thio and 4-methyl-thiazolyl-thio)-quinazolin-4-ones as a new class of DHFR inhibitors” (Bioorg Med Chem Lett, 2014):
The source made the active and inactive calls. The calls are words filed in the database; no cut-off is given here.

How the values were obtained:
[1] = tested on: A498; test: Growth inhibition of human A498 cells at 10 uM after 48 hrs; format: functional
[2] = tested on: SF-268; test: Growth inhibition of human SF268 cells at 10 uM after 48 hrs; format: functional
[3] = tested on: T47D; test: Growth inhibition of human T47D cells at 10 uM after 48 hrs; format: functional
[4] = tested on: RPMI-8226; test: Growth inhibition of human RPMI8226 cells at 10 uM after 48 hrs; format: functional
[5] = tested on: Candida albicans; test: Antimicrobial activity against Candida albicans assessed as inhibition zone at 200 ug/disk after 24 hrs by disc-diffusion method; format: functional; settings: read-out: IZ
[6] = tested on: RXF 393; test: Growth inhibition of human RXF393 cells at 10 uM after 48 hrs; format: functional
[7] = tested on: HCC 2998; test: Growth inhibition of human HCC2998 cells at 10 uM after 48 hrs; format: functional
[8] = tested on: ACHN; test: Growth inhibition of human ACHN cells at 10 uM after 48 hrs; format: functional
[9] = tested on: K562; test: Growth inhibition of human K562 cells at 10 uM after 48 hrs; format: functional
[10] = tested on: SK-MEL-5; test: Growth inhibition of human SK-MEL-5 cells at 10 uM after 48 hrs; format: functional
[11] = tested on: SN12C; test: Growth inhibition of human SN12C cells at 10 uM after 48 hrs; format: functional
[12] = tested on: MOLT-4; test: Growth inhibition of human MOLT4 cells at 10 uM after 48 hrs; format: functional
[13] = tested on: OVCAR-4; test: Growth inhibition of human OVCAR4 cells at 10 uM after 48 hrs; format: functional
[14] = tested on: UACC-257; test: Growth inhibition of human UACC257 cells at 10 uM after 48 hrs; format: functional
[15] = tested on: Pseudomonas aeruginosa; test: Antimicrobial activity against Pseudomonas aeruginosa assessed as inhibition zone at 200 ug/disk after 24 hrs by disc-diffusion method; format: functional; settings: read-out: IZ
[16] = tested on: NCI/ADR-RES; test: Growth inhibition of human NCI-ADR-RES cells at 10 uM after 48 hrs; format: functional
[17] = tested on: UACC-62; test: Growth inhibition of human UACC62 cells at 10 uM after 48 hrs; format: functional
[18] = tested on: OVCAR-5; test: Growth inhibition of human OVCAR5 cells at 10 uM after 48 hrs; format: functional
[19] = tested on: PC-3; test: Growth inhibition of human PC3 cells at 10 uM after 48 hrs; format: functional
[20] = tested on: UO-31; test: Growth inhibition of human UO31 cells at 10 uM after 48 hrs; format: functional
[21] = tested on: HL-60(TB); test: Growth inhibition of human HL-60(TB) cells at 10 uM after 48 hrs; format: functional
[22] = tested on: HOP-92; test: Growth inhibition of human HOP92 cells at 10 uM after 48 hrs; format: functional
[23] = tested on: Hs-578T; test: Growth inhibition of human Hs 578T cells at 10 uM after 48 hrs; format: functional
[24] = tested on: CAKI-1; test: Growth inhibition of human CAKI-1 cells at 10 uM after 48 hrs; format: functional
[25] = tested on: HCT-116; test: Growth inhibition of human HCT116 cells at 10 uM after 48 hrs; format: functional
[26] = tested on: BT-549; test: Growth inhibition of human BT549 cells at 10 uM after 48 hrs; format: functional
[27] = tested on: Escherichia coli; test: Antimicrobial activity against Escherichia coli assessed as inhibition zone at 200 ug/disk after 24 hrs by disc-diffusion method; format: functional; settings: read-out: IZ
[28] = tested on: SR; test: Growth inhibition of human SR cells at 10 uM after 48 hrs; format: functional
[29] = tested on: COLO 205; test: Growth inhibition of human COLO205 cells at 10 uM after 48 hrs; format: functional
[30] = tested on: NCI-H226; test: Growth inhibition of human NCI-H226 cells at 10 uM after 48 hrs; format: functional
[31] = tested on: SF-295; test: Growth inhibition of human SF295 cells at 10 uM after 48 hrs; format: functional
[32] = target: T1, Dihydrofolate reductase (Bos taurus, UniProt P00376); test: Inhibition of bovine liver DHFR
T1 sequence (P00376 whole entry): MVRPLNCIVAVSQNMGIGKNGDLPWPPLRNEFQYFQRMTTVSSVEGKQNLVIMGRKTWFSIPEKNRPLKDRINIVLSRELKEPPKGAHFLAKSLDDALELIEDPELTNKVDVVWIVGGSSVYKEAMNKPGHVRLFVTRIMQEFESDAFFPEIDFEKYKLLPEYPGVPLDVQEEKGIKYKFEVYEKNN

[33] = tested on: HT-29; test: Growth inhibition of human HT-29 cells at 10 uM after 48 hrs; format: functional
[34] = tested on: TK-10; test: Growth inhibition of human TK10 cells at 10 uM after 48 hrs; format: functional
[35] = tested on: M14; test: Growth inhibition of human M14 cells at 10 uM after 48 hrs; format: functional
[36] = tested on: MCF7; test: Growth inhibition of human MCF7 cells at 10 uM after 48 hrs; format: functional
[37] = tested on: MDA-MB-435; test: Growth inhibition of human MDA-MB-435 cells at 10 uM after 48 hrs; format: functional
[38] = tested on: MDA-MB-468; test: Growth inhibition of human MDA-MB-468 cells at 10 uM after 48 hrs; format: functional
[39] = tested on: HCT-15; test: Growth inhibition of human HCT15 cells at 10 uM after 48 hrs; format: functional
[40] = tested on: Staphylococcus aureus; test: Antimicrobial activity against Staphylococcus aureus assessed as inhibition zone at 200 ug/disk after 24 hrs by disc-diffusion method; format: functional; settings: read-out: IZ
[41] = tested on: Malme-3M; test: Growth inhibition of human MALME-3M cells at 10 uM after 48 hrs; format: functional
[42] = tested on: SNB-19; test: Growth inhibition of human SNB19 cells at 10 uM after 48 hrs; format: functional
[43] = tested on: OVCAR-8; test: Growth inhibition of human OVCAR8 cells at 10 uM after 48 hrs; format: functional
[44] = tested on: NCI-H522; test: Growth inhibition of human NCI-H522 cells at 10 uM after 48 hrs; format: functional
[45] = tested on: KM12; test: Growth inhibition of human KM12 cells at 10 uM after 48 hrs; format: functional
[46] = tested on: NCI-H23; test: Growth inhibition of human NCI-H23 cells at 10 uM after 48 hrs; format: functional
[47] = tested on: Bacillus subtilis; test: Antimicrobial activity against Bacillus subtilis assessed as inhibition zone at 200 ug/disk after 24 hrs by disc-diffusion method; format: functional; settings: read-out: IZ
[48] = tested on: SF-539; test: Growth inhibition of human SF539 cells at 10 uM after 48 hrs; format: functional
[49] = tested on: CCRF-CEM; test: Growth inhibition of human CCRF-CEM cells at 10 uM after 48 hrs; format: functional
[50] = tested on: MDA-MB-231; test: Growth inhibition of human MDA-MB-231 cells at 10 uM after 48 hrs; format: functional
[51] = tested on: 786-0; test: Growth inhibition of human 786-0 cells at 10 uM after 48 hrs; format: functional
[52] = tested on: SNB-75; test: Growth inhibition of human SNB75 cells at 10 uM after 48 hrs; format: functional
[53] = tested on: LOX IMVI; test: Growth inhibition of human LOXIMVI cells at 10 uM after 48 hrs; format: functional
[54] = tested on: OVCAR-3; test: Growth inhibition of human OVCAR3 cells at 10 uM after 48 hrs; format: functional
[55] = tested on: NCI-H460; test: Growth inhibition of human NCI-H460 cells at 10 uM after 48 hrs; format: functional
[56] = tested on: U-251; test: Growth inhibition of human U251 cells at 10 uM after 48 hrs; format: functional
[57] = tested on: SW-620; test: Growth inhibition of human SW620 cells at 10 uM after 48 hrs; format: functional
[58] = tested on: A549; test: Growth inhibition of human A549 cells at 10 uM after 48 hrs; format: functional

Cc1ccc(-n2c(Sc3sc(N)nc3C)nc3ccc(C)cc3c2=O)cc1
growth inhibition (GI) [1]: inactive
growth inhibition (GI) [2]: inactive
growth inhibition (GI) [3]: inactive
growth inhibition (GI) [4]: inactive
zone of inhibition at 200 µg/disc [5]: 8 mm
growth inhibition (GI) [6]: inactive
growth inhibition (GI) [7]: inactive
growth inhibition (GI) [8]: inactive
growth inhibition (GI) [9]: inactive
growth inhibition (GI) [10]: inactive
growth inhibition (GI) [11]: inactive
growth inhibition (GI) [12]: inactive
growth inhibition (GI) [13]: inactive
growth inhibition (GI) [14]: inactive
zone of inhibition at 200 µg/disc [15]: 8 mm
growth inhibition (GI) [16]: inactive
growth inhibition (GI) [17]: inactive
growth inhibition (GI) [18]: inactive
growth inhibition (GI) [19]: inactive
growth inhibition (GI) [20]: inactive
growth inhibition (GI) [21]: inactive
growth inhibition (GI) [22]: inactive
growth inhibition (GI) [23]: inactive
growth inhibition (GI) [24]: inactive
growth inhibition (GI) [25]: inactive
growth inhibition (GI) [26]: inactive
zone of inhibition at 200 µg/disc [27]: 8 mm
growth inhibition (GI) [28]: inactive
growth inhibition (GI) [29]: inactive
growth inhibition (GI) [30]: inactive
growth inhibition (GI) [31]: inactive
IC50 [32]: 7 µM
growth inhibition (GI) [33]: inactive
growth inhibition (GI) [34]: inactive
growth inhibition (GI) [35]: inactive
growth inhibition (GI) [36]: inactive
growth inhibition (GI) [37]: inactive
growth inhibition (GI) [38]: inactive
growth inhibition (GI) [39]: inactive
zone of inhibition at 200 µg/disc [40]: 8 mm
growth inhibition (GI) [41]: inactive
growth inhibition (GI) [42]: inactive
growth inhibition (GI) [43]: inactive
growth inhibition (GI) [44]: inactive
growth inhibition (GI) [45]: inactive
growth inhibition (GI) [46]: inactive
zone of inhibition at 200 µg/disc [47]: 8 mm
growth inhibition (GI) [48]: inactive
growth inhibition (GI) [49]: inactive
growth inhibition (GI) [50]: inactive
growth inhibition (GI) [51]: inactive
growth inhibition (GI) [52]: inactive
growth inhibition (GI) [53]: inactive
growth inhibition (GI) [54]: inactive
growth inhibition (GI) [55]: inactive
growth inhibition (GI) [56]: inactive
growth inhibition (GI) [57]: inactive
growth inhibition (GI) [58]: inactive

COc1cc2nc(Sc3sc(N)nc3C)n(-c3ccc(C)cc3)c(=O)c2cc1OC
growth inhibition (GI) [1]: inactive
growth inhibition (GI) [2]: inactive
growth inhibition (GI) [3]: inactive
growth inhibition (GI) [4]: inactive
zone of inhibition at 200 µg/disc [5]: 8 mm
growth inhibition (GI) [6]: inactive
growth inhibition (GI) [7]: inactive
growth inhibition (GI) [8]: inactive
growth inhibition (GI) [9]: inactive
growth inhibition (GI) [10]: inactive
growth inhibition (GI) [11]: inactive
growth inhibition (GI) [12]: inactive
growth inhibition (GI) [13]: inactive
growth inhibition (GI) [14]: inactive
zone of inhibition at 200 µg/disc [15]: 8 mm
growth inhibition (GI) [16]: inactive
growth inhibition (GI) [17]: inactive
growth inhibition (GI) [18]: inactive
growth inhibition (GI) [19]: inactive
growth inhibition (GI) [20]: inactive
growth inhibition (GI) [21]: inactive
growth inhibition (GI) [22]: inactive
growth inhibition (GI) [23]: inactive
growth inhibition (GI) [24]: inactive
growth inhibition (GI) [25]: inactive
growth inhibition (GI) [26]: inactive
zone of inhibition at 200 µg/disc [27]: 8 mm
growth inhibition (GI) [28]: inactive
growth inhibition (GI) [29]: inactive
growth inhibition (GI) [30]: inactive
growth inhibition (GI) [31]: inactive
IC50 [32]: 8 µM
growth inhibition (GI) [33]: inactive
growth inhibition (GI) [34]: inactive
growth inhibition (GI) [35]: inactive
growth inhibition (GI) [36]: inactive
growth inhibition (GI) [37]: inactive
growth inhibition (GI) [38]: inactive
growth inhibition (GI) [39]: inactive
zone of inhibition at 200 µg/disc [40]: 8 mm
growth inhibition (GI) [41]: inactive
growth inhibition (GI) [42]: inactive
growth inhibition (GI) [43]: inactive
growth inhibition (GI) [44]: inactive
growth inhibition (GI) [45]: inactive
growth inhibition (GI) [46]: inactive
zone of inhibition at 200 µg/disc [47]: 8 mm
growth inhibition (GI) [48]: inactive
growth inhibition (GI) [49]: inactive
growth inhibition (GI) [50]: inactive
growth inhibition (GI) [51]: inactive
growth inhibition (GI) [52]: inactive
growth inhibition (GI) [53]: inactive
growth inhibition (GI) [54]: inactive
growth inhibition (GI) [55]: inactive
growth inhibition (GI) [56]: inactive
growth inhibition (GI) [57]: inactive
growth inhibition (GI) [58]: inactive
